Experimental data reported in ChEMBL document CHEMBL6134931, “Lysine-Targeted Covalent Strategy Leading to the Discovery of Novel Potent PROTAC-Based PI3Kδ Degraders” (J Med Chem, 2025).
Activity calls are given as the source filed them. The calls are words filed in the database; no cut-off is given here.

Legend:
SU-DHL-6 [1] = test: Antiproliferative activity against human SU-DHL-6 cells assessed as cell growth inhibition incubated for 72 hrs by MTT assay; type: functional
SU-DHL-6 [2] = test: Inhibition of AKT phosphorylation in human SU-DHL-6 cells at 0.1 to 1 uM incubated for 24 hrs by Western blot analysis; type: cell-based; settings: dose 0.1-1 µM
Pfeiffer = test: Antiproliferative activity against human Pfeiffer cells assessed as cell growth inhibition incubated for 72 hrs by MTT assay; type: functional
[3] = Stability of compound in PBS at pH 7.4 assessed as parent compound remaining measured after 48 hrs by HPLC analysis; type: physicochemical; settings: read-out: Stability
SU-DHL-6 [4] = test: Inhibition of AKT phosphorylation in human SU-DHL-6 cells at 1 to 10000 nM incubated for 24 hrs by Western blot analysis; type: cell-based; settings: dose 1-10000 nM
SU-DHL-6 [5] = test: Induction of autophagy in human SU-DHL-6 cells assessed as increase in LC3-II to LC3-I ratio at 1 to 100 nM incubated for 24 hrs by Western blot analysis; type: functional, cell-based; settings: dose 1-100 nM
[6] = target: Phosphatidylinositol 4,5-bisphosphate 3-kinase catalytic subunit alpha isoform (Homo sapiens, UniProt P42336); test: Inhibition of PI3Kalpha (unknown origin) preincubated for 30 mins followed by ATP addition and measured after 1 hrs by ADP-Glo reagent based analysis
[7] = target: Phosphatidylinositol 4,5-bisphosphate 3-kinase catalytic subunit beta isoform (Homo sapiens, UniProt P42338); test: Inhibition of PI3Kbeta (unknown origin) preincubated for 30 mins followed by ATP addition and measured after 1 hrs by ADP-Glo reagent based analysis
[8] = target: von Hippel-Lindau disease tumor suppressor/Phosphatidylinositol 4,5-bisphosphate 3-kinase catalytic subunit alpha isoform (Homo sapiens, UniProt P42336+P40337); test: PROTAC activity at VHL/p110alpha in human SU-DHL-6 cells assessed as induction of p110alpha degradation incubated for 24 hrs by Western blot analysis; type: cell-based
[9] = target: von Hippel-Lindau disease tumor suppressor/Phosphatidylinositol 4,5-bisphosphate 3-kinase catalytic subunit beta isoform (Homo sapiens, UniProt P42338+P40337); test: PROTAC activity at VHL/p110beta in human SU-DHL-6 cells assessed as induction of p110beta degradation incubated for 24 hrs by Western blot analysis; type: cell-based
SU-DHL-6 [10] = test: Cell cycle arrest in human SU-DHL-6 cells assessed as increase in G1 phase cells incubated for 24 hrs by PI staining based flow cytometric analysis; type: functional; settings: dose 0.01-1 µM
SU-DHL-6 [11] = test: Cell cycle arrest in human SU-DHL-6 cells assessed as increase in G1 phase cells at 0.1 uM incubated for 24 hrs by PI staining based flow cytometric analysis; type: functional
SU-DHL-6 [12] = test: Induction of apoptosis in human SU-DHL-6 cells assessed as viable cells at 1 uM incubated for 24 hrs by Annexin V-FITC/PI staining based flow cytometric analysis (reference value: 92.54 %); type: functional; settings: read-out: Activity
SU-DHL-6 [13] = test: Induction of apoptosis in human SU-DHL-6 cells assessed as early apoptotic cells at 1 uM incubated for 24 hrs by Annexin V-FITC/PI staining based flow cytometric analysis (reference value: 2.32 %); type: functional
SU-DHL-6 [14] = test: Induction of apoptosis in human SU-DHL-6 cells assessed as late apoptotic cells at 1 uM incubated for 24 hrs by Annexin V-FITC/PI staining based flow cytometric analysis (reference value: 4.75 %); type: functional
SU-DHL-6 [15] = test: Induction of apoptosis in human SU-DHL-6 cells assessed as necrotic cells at 1 uM incubated for 24 hrs by Annexin V-FITC/PI staining based flow cytometric analysis (reference value: 0.39 %); type: functional
SU-DHL-6 [16] = test: Induction of apoptosis in human SU-DHL-6 cells assessed as viable cells at 0.01 uM incubated for 24 hrs by Annexin V-FITC/PI staining based flow cytometric analysis (reference value: 92.54 %); type: functional; settings: read-out: Activity
SU-DHL-6 [17] = test: Induction of apoptosis in human SU-DHL-6 cells assessed as early apoptotic cells at 0.01 uM incubated for 24 hrs by Annexin V-FITC/PI staining based flow cytometric analysis (reference value: 2.32 %); type: functional
SU-DHL-6 [18] = test: Induction of apoptosis in human SU-DHL-6 cells assessed as late apoptotic cells at 0.01 uM incubated for 24 hrs by Annexin V-FITC/PI staining based flow cytometric analysis (reference value: 4.75 %); type: functional
SU-DHL-6 [19] = test: Induction of apoptosis in human SU-DHL-6 cells assessed as necrotic cells at 0.01 uM incubated for 24 hrs by Annexin V-FITC/PI staining based flow cytometric analysis (reference value: 0.39 %); type: functional
SU-DHL-6 [20] = test: Induction of apoptosis in human SU-DHL-6 cells assessed as viable cells at 0.1 uM incubated for 24 hrs by Annexin V-FITC/PI staining based flow cytometric analysis (reference value: 92.54 %); type: functional; settings: read-out: Activity
SU-DHL-6 [21] = test: Induction of apoptosis in human SU-DHL-6 cells assessed as early apoptotic cells at 0.1 uM incubated for 24 hrs by Annexin V-FITC/PI staining based flow cytometric analysis (reference value: 2.32 %); type: functional
SU-DHL-6 [22] = test: Induction of apoptosis in human SU-DHL-6 cells assessed as late apoptotic cells at 0.1 uM incubated for 24 hrs by Annexin V-FITC/PI staining based flow cytometric analysis (reference value: 4.75 %); type: functional
SU-DHL-6 [23] = test: Induction of apoptosis in human SU-DHL-6 cells assessed as necrotic cells at 0.1 uM incubated for 24 hrs by Annexin V-FITC/PI staining based flow cytometric analysis (reference value: 0.39 %); type: functional
SU-DHL-6 [24] = test: Antitumor activity against human SU-DHL-6 cells xenografted in male nude mouse model assessed as tumor growth inhibition at 2 mg/kg, ip administered for 21 days relative to control; type: functional; settings: SU-DHL-6, 504 h, time 21 day, read-out: TGI
SU-DHL-6 [25] = test: Antitumor activity against human SU-DHL-6 cells xenografted in male nude mouse model assessed as tumor growth inhibition at 10 mg/kg, ip administered for 21 days relative to control; type: functional; settings: SU-DHL-6, 504 h, time 21 day, read-out: TGI
[26] = Toxicity in male nude mouse xenografted with human SU-DHL-6 cells assessed as animal death at 2 to 10 mg/kg, ip administered for 21 days; type: organism-based; settings: in vivo, 504 h, dose 2-10 mg/kg, time 21 day
[27] = Toxicity in male nude mouse xenografted with human SU-DHL-6 cells assessed as effect on body weight at 2 to 10 mg/kg, ip administered for 21 days; type: organism-based; settings: in vivo, 504 h, dose 2-10 mg/kg, time 21 day
Mus musculus = test: In vivo inhibition of AKT phosphorylation in male nude mouse xenografted with human SU-DHL-6 cells assessed as reduction in p-AKT expression level in tumor administered intraperitoneally for 21 days by Western blot analysis; type: functional, organism-based; settings: dose 2-10 mg/kg, route ip, time 21.0 day
SU-DHL-6 [28] = test: Antitumor activity against human SU-DHL-6 cells xenografted in male nude mouse model assessed as reduction in Ki67 expression in tumor at 2 to 10 mg/kg, ip administered for 21 days by immunohistochemical analysis; type: functional, organism-based; settings: dose 2-10 mg/kg, time 21.0 day
[29] = Toxicity in male nude mouse xenografted with human SU-DHL-6 cells assessed as effect on heart morphology at 2 to 10 mg/kg, ip administered for 21 days by H and E staining based analysis; type: organism-based; settings: in vivo, 504 h, dose 2-10 mg/kg, time 21 day
[30] = Toxicity in male nude mouse xenografted with human SU-DHL-6 cells assessed as effect on liver morphology at 2 to 10 mg/kg, ip administered for 21 days by H and E staining based analysis; type: organism-based; settings: in vivo, 504 h, dose 2-10 mg/kg, time 21 day
[31] = Toxicity in male nude mouse xenografted with human SU-DHL-6 cells assessed as effect on spleen morphology at 2 to 10 mg/kg, ip administered for 21 days by H and E staining based analysis; type: organism-based; settings: in vivo, 504 h, dose 2-10 mg/kg, time 21 day
[32] = Toxicity in male nude mouse xenografted with human SU-DHL-6 cells assessed as effect on kidney morphology at 2 to 10 mg/kg, ip administered for 21 days by H and E staining based analysis; type: organism-based; settings: in vivo, 504 h, dose 2-10 mg/kg, time 21 day
[33] = target: T1, Phosphatidylinositol 4,5-bisphosphate 3-kinase catalytic subunit delta isoform (Homo sapiens) (UniProt O00329); test: Induction of p110delta degradation in human SU-DHL-6 cells at 1000 nM incubated for 24 hrs by Western blot analysis; type: cell-based
T1 sequence (whole entry): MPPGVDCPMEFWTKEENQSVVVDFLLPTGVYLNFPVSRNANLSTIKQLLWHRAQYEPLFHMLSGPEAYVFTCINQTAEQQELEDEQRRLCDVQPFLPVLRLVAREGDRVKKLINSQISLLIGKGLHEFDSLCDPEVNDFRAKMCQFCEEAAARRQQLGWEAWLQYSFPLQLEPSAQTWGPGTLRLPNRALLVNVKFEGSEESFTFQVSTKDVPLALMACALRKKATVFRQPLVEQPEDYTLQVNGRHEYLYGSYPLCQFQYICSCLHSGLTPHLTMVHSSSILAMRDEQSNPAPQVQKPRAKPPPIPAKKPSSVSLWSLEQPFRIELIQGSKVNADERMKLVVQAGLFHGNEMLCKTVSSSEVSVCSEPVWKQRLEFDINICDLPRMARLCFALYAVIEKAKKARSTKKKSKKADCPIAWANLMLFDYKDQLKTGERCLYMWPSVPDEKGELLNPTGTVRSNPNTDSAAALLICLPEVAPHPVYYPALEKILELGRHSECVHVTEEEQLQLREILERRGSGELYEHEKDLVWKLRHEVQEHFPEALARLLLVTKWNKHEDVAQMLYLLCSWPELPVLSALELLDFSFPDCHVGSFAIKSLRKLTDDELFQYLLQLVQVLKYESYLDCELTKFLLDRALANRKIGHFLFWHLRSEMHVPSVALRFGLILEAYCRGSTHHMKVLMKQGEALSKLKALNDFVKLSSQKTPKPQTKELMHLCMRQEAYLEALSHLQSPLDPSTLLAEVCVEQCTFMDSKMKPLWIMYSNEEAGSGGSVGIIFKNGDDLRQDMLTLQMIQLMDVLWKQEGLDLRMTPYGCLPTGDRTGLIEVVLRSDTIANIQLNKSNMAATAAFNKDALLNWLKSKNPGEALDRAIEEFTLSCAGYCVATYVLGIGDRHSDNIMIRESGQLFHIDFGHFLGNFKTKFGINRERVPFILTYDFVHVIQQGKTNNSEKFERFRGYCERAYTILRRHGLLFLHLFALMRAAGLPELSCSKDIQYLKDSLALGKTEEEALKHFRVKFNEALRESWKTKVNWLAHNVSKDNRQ

[34] = target: von Hippel-Lindau disease tumor suppressor/Phosphatidylinositol 4,5-bisphosphate 3-kinase catalytic subunit delta isoform (Homo sapiens) (UniProt O00329+P40337); test: PROTAC activity at VHL/p110delta in human SU-DHL-6 cells assessed as induction of p110delta degradation at 100 nM measured after 12 hrs in presence of (2S,4R)-1-((S)-2-acetamido-3,3-dimethylbutanoyl)-4-hydroxy-N-(4-(4-methylthiazol-5-yl)benzyl)pyrrolidine-2-carboxamide by Western blot analysis; type: cell-based
Sequence of von Hippel-Lindau disease tumor suppressor/Phosphatidylinositol 4,5-bisphosphate 3-kinase catalytic subunit delta isoform (Homo sapiens) (P40337 whole entry, looked up, one chain of several, canonical isoform): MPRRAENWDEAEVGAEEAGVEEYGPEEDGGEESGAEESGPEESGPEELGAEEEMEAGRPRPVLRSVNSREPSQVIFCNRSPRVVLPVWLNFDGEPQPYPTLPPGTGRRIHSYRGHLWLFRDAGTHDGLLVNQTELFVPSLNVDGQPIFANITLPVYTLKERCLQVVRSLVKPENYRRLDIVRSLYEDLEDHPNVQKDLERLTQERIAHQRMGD

Sequence of Phosphatidylinositol 4,5-bisphosphate 3-kinase catalytic subunit alpha isoform (P42336 whole entry, canonical isoform): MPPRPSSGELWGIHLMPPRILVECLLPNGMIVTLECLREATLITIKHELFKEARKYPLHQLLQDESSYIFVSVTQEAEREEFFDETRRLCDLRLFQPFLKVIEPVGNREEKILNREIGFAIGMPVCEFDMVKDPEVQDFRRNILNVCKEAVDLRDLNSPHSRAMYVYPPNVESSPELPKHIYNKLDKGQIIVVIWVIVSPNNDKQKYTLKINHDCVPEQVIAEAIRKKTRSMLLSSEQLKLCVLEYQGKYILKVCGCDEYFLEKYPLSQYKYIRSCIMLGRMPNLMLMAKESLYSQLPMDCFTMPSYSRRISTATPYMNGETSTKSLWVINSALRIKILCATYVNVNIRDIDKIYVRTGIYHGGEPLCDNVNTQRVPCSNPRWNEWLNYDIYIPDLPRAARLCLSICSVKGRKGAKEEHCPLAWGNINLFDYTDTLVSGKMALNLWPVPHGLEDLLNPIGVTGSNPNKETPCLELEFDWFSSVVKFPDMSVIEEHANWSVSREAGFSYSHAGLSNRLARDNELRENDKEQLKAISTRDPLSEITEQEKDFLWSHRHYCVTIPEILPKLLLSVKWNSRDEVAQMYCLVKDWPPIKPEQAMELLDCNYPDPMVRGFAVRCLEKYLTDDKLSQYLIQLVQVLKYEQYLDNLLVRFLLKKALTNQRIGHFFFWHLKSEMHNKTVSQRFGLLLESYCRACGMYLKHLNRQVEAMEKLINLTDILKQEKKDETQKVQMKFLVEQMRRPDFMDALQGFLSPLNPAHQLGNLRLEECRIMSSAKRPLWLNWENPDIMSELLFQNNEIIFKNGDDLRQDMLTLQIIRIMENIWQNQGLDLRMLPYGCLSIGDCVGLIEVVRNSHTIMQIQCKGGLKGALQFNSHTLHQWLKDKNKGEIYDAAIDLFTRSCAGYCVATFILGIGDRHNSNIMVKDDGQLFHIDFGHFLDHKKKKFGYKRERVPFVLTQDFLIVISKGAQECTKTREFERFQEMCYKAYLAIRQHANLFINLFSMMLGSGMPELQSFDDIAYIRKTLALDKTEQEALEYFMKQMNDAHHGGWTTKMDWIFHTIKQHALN
Sequence of von Hippel-Lindau disease tumor suppressor/Phosphatidylinositol 4,5-bisphosphate 3-kinase catalytic subunit alpha isoform (P42336 whole entry, canonical isoform): as above
Sequence of von Hippel-Lindau disease tumor suppressor/Phosphatidylinositol 4,5-bisphosphate 3-kinase catalytic subunit alpha isoform (P40337 whole entry, canonical isoform): as the sequence (P40337 whole entry, looked up, one chain of several, canonical isoform) above
Sequence of von Hippel-Lindau disease tumor suppressor/Phosphatidylinositol 4,5-bisphosphate 3-kinase catalytic subunit beta isoform (P42338 whole entry, canonical isoform): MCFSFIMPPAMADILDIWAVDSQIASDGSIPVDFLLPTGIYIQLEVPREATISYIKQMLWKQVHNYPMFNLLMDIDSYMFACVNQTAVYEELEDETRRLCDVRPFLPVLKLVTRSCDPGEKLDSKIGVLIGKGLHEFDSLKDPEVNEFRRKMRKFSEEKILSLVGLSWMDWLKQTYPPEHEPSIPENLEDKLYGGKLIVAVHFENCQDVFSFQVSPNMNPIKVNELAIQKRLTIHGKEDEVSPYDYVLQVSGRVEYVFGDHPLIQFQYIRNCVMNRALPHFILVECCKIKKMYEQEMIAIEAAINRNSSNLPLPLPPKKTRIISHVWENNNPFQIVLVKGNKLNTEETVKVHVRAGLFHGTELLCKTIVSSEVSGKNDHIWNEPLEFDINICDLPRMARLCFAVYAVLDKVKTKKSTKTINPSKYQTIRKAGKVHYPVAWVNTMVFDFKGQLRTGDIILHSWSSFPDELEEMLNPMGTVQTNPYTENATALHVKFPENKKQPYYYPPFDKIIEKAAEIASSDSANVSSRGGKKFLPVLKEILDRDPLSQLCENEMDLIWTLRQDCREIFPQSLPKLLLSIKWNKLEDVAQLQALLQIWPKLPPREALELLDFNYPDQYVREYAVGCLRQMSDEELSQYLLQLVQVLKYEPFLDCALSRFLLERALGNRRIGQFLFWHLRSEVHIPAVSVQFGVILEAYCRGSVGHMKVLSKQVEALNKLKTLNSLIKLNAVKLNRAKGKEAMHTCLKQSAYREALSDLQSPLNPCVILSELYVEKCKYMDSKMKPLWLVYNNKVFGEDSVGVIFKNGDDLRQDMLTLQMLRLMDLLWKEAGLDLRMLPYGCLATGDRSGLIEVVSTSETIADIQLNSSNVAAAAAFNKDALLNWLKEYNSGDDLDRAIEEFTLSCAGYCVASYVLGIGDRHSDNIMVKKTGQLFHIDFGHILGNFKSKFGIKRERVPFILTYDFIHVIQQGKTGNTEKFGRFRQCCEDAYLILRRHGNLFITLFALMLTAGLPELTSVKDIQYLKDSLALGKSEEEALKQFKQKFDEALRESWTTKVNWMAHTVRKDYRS
Sequence of von Hippel-Lindau disease tumor suppressor/Phosphatidylinositol 4,5-bisphosphate 3-kinase catalytic subunit beta isoform (P40337 whole entry, canonical isoform): as the sequence (P40337 whole entry, looked up, one chain of several, canonical isoform) above
Sequence of Phosphatidylinositol 4,5-bisphosphate 3-kinase catalytic subunit beta isoform (P42338 whole entry, canonical isoform): as the sequence (P42338 whole entry, canonical isoform) above

## COc1ncc(-c2ccc3ncnc(N[C@H]4CCN(C(=O)C5CCN(CCCCCCCCCC(=O)N[C@H](C(=O)N6C[C@H](O)C[C@H]6C(=O)N[C@@H](C)c6ccc(-c7scnc7C)cc6)C(C)(C)C)CC5)C4)c3n2)cc1C(=O)Oc1ccccc1
SU-DHL-6 [1]
  GI50: 0.17 µM
SU-DHL-6 [2]
  inhibition: Active
Pfeiffer
  GI50: 0.35 µM
[3]
  remaining at 48 h: > 80%
SU-DHL-6 [4]
  inhibition: Active
SU-DHL-6 [5]
  Activity: Active
[6]
  IC50: 0.589 µM
[7]
  IC50: > 10 µM
[8]
  DC50: > 1 µM
[9]
  DC50: > 1 µM
SU-DHL-6 [10]
  Activity: Dose-dependent-effect
SU-DHL-6 [11]
  Activity: Active; More Potent Than 10 Um Idelalisib
SU-DHL-6 [12]
  viability at 1 µM: 33.9%
SU-DHL-6 [13]
  Activity: 14.65%
SU-DHL-6 [14]
  Activity: 50.74%
SU-DHL-6 [15]
  Activity: 0.76%
SU-DHL-6 [16]
  viability at 0.01 µM: 91.7%
SU-DHL-6 [17]
  Activity: 0.61%
SU-DHL-6 [18]
  Activity: 6.92%
SU-DHL-6 [19]
  Activity: 0.51%
SU-DHL-6 [20]
  viability at 0.1 µM: 91.5%
SU-DHL-6 [21]
  Activity: 0.75%
SU-DHL-6 [22]
  Activity: 7.11%
SU-DHL-6 [23]
  Activity: 0.65%
SU-DHL-6 [24]
  inhibition in vivo at 2 mg/kg: 59.1%
SU-DHL-6 [25]
  inhibition in vivo at 10 mg/kg: 73.3%
[26]
  Activity: Non-toxic
[27]
  Activity: Non-toxic
Mus musculus
  inhibition: Dose-dependent-effect
SU-DHL-6 [28]
  Activity: Active
[29]
  Activity: Non-toxic
[30]
  Activity: Non-toxic
[31]
  Activity: Non-toxic
[32]
  Activity: Non-toxic

## COc1ncc(-c2ccc3ncnc(N[C@H]4CCN(C(=O)C5CCOCC5)C4)c3n2)cc1C(=O)Oc1ccccc1
[33]
  Activity: < 20%
[34]
  Activity: Not active; Formation Of Ternary Complex Plays A Pivotal Factor In Degradation
